Measured values taken from patent US6495571B1, “Pyridine compounds, use and preparation thereof” (Southern Research Institute, priority 1999, dated 2002).
Marks after values point to notes of the source that are not given here.

How the values were obtained:
[1] = system: human MX-1 mammary tumor (ic, 10^6 cells); assay: In vivo antitumor activity, i.c.-implanted MX-1 xenograft; conditions: for Median % ILS (dying mice only) / Tumor-Free-Surv/Total: Days 1-5; for activity against i.c.-implanted tumor (in words): in comparison to PEN and DM-PEN; for Median % ILS (based on dying mice only) / Survivors: optimal doses (LD10 or less), schedule QD1-5, administered LP.
[2] = system: human MX-1 mammary tumor (sc, 30-40 mg fragments); assay: In vivo antitumor activity, s.c.-implanted MX-1 xenograft; parameters: species or system Athymic mice (Ncr-nu); conditions: for antitumor activity (in words): MX-1 implanted s.c. or i.c.
cancer = assay: Anti-cancer activity (test not specified)
[3] = oral (gavage) 135 mg/kg/dose, Days 12-16
[4] = oral (gavage) 135 mg/kg/dose, Days 13-17

In the case of COCC(=O)Oc1c(Cl)c(OC)nc(C(Cl)(Cl)Cl)c1Cl [DM-MA-PEN], the “Median % ILS (dying mice only)” value ([1]; IP 90 mg/kg/dose) was “+125%”, the Tumor-Free-Surv/Total ([1]; IP 90 mg/kg/dose) was 1/5 and the “activity against i.c.-implanted tumor (in words)” value [1] was “significant activity”. For the same molecule, the “Median % ILS (based on dying mice only)” value [1] was 126^a %, the Survivors [1] was 1/5 and the “Median % ILS (dying mice only)” value ([1]; oral (gavage) 90 mg/kg/dose) was “+110%”. The Tumor-Free-Surv/Total ([1]; oral (gavage) 90 mg/kg/dose) was 1/5, the T-C [2, 3] was over 41.0 days and the Tumor-Free-Surv/Total [2, 3] was 5/5.
In the case of COc1nc(C(Cl)(Cl)Cl)c(Cl)c(OC(=O)CI)c1Cl [DM-IA-PEN], the T-C ([2]; IP 60 mg/kg/dose, Days 12-16) was 20.3 days, the Tumor-Free-Surv/Total ([2]; IP 60 mg/kg/dose, Days 12-16) was 1/5 and the “IP dosage marked (LD50)” value ([2]; IP, Days 12-16, sc MX-1 bearing mice) was 60 (LD50) mg/kg/dose.
CCOc1c(Cl)c(OC)nc(C(Cl)(Cl)Cl)c1Cl [3,5-dichloro-4-ethoxy-6-methoxy-2-(trichloromethyl)pyridine] was tested, and the “anti-cancer activity (in words)” value (cancer) was “active anti-cancer activity”.
For COc1nc(C(Cl)(Cl)Cl)c(Cl)c(OC(=O)c2ccccc2)c1Cl [DM-B-PEN], the “Median % ILS (dying mice only)” value ([1]; IP 335 mg/kg/dose) was “+84%”, the Tumor-Free-Surv/Total ([1]; IP 335 mg/kg/dose) was 0/5 and the “Median % ILS (dying mice only)” value ([1]; oral (gavage) 135 mg/kg/dose) was “+12%”. For the same molecule, the Tumor-Free-Surv/Total ([1]; oral (gavage) 135 mg/kg/dose) was 0/5, the T-C ([2]; IP 135 mg/kg/dose, Days 11-15) was over 42.7 days and the Tumor-Free-Surv/Total ([2]; IP 135 mg/kg/dose, Days 11-15) was 5/5. For the same molecule, the “antitumor activity (in words)” value ([2]; i.p. administration) was “high activity”, the “antitumor activity (in words)” value ([2]; oral drug treatment) was “low antitumor activity” and the “oral absorption (in words)” value ([2]; inferred from MX-1 results (s.c. or i.c.), oral treatment) was “oral absorption was poor”. For the same molecule, the T-C [2, 4] was -1.4 days and the Tumor-Free-Surv/Total [2, 4] was 0/5.
For COc1nc(C(Cl)(Cl)Cl)c(Cl)c(OC(=O)c2ccco2)c1Cl [DM-F-PEN], the “Median % ILS (dying mice only)” value ([1]; IP 135 mg/kg/dose) was “+108%”, the Tumor-Free-Surv/Total ([1]; IP 135 mg/kg/dose) was 2/5 and the “activity against i.c.-implanted tumor (in words)” value [1] was “significant activity”. The “Median % ILS (based on dying mice only)” value [1] was 108^c %, the Survivors [1] was 2/5 and the T-C ([2]; IP 90 mg/kg/dose, Days 12-16) was over 41.2 days. The Tumor-Free-Surv/Total ([2]; IP 90 mg/kg/dose, Days 12-16) was 5/5.
For COc1nc(C(Cl)(Cl)Cl)c(Cl)c(OC(=O)COC(C)=O)c1Cl [DM-AA-PEN], the “Median % ILS (dying mice only)” value ([1]; IP 135 mg/kg/dose) was “+67%”, the Tumor-Free-Surv/Total ([1]; IP 135 mg/kg/dose) was 0/5 and the “Median % ILS (dying mice only)” value ([1]; oral (gavage) 135 mg/kg/dose) was “+115%”. The Tumor-Free-Surv/Total ([1]; oral (gavage) 135 mg/kg/dose) was 2/5.
C=CC(=O)Oc1c(Cl)c(OC)nc(C(Cl)(Cl)Cl)c1Cl [DM-AC-PEN] was tested, and the “Median % ILS (dying mice only)” value ([1]; IP 60 mg/kg/dose) was “+55%”, the Tumor-Free-Surv/Total ([1]; IP 60 mg/kg/dose) was 0/5 and the T-C ([2]; IP 60 mg/kg/dose, Days 12-16) was 30.0 days. For the same molecule, the Tumor-Free-Surv/Total ([2]; IP 60 mg/kg/dose, Days 12-16) was 1/5.
In the case of COc1nc(C(Cl)(Cl)Cl)c(Cl)c(OC(=O)c2cccs2)c1Cl [DM-TC-PEN], the “Median % ILS (dying mice only)” value ([1]; IP 135 mg/kg/dose) was “+100%”, the Tumor-Free-Surv/Total ([1]; IP 135 mg/kg/dose) was 0/5 and the “activity against i.c.-implanted tumor (in words)” value [1] was “significant activity”. For the same molecule, the “Median % ILS (based on dying mice only)” value [1] was 100^d %, the Survivors [1] was 0/5 and the T-C ([2]; IP 90 mg/kg/dose, Days 12-16) was over 41.2 days. The Tumor-Free-Surv/Total ([2]; IP 90 mg/kg/dose, Days 12-16) was 4/5.
With COc1nc(C(Cl)(Cl)Cl)c(Cl)c(OC(=O)C(Cl)Cl)c1Cl [DM-DCA-PEN] the T-C ([2]; IP 135 mg/kg/dose, Days 12-16) was over 38.6 days and the Tumor-Free-Surv/Total ([2]; IP 135 mg/kg/dose, Days 12-16) was 2/5.
With COc1nc(C(Cl)(Cl)Cl)c(Cl)c(OC(=O)c2c(Cl)cc(Cl)cc2Cl)c1Cl [DM-TCB-PEN] the “Median % ILS (dying mice only)” value ([1]; IP 135 mg/kg/dose) was “+92%” and the Tumor-Free-Surv/Total ([1]; IP 135 mg/kg/dose) was 1/5.
With COc1nc(C(Cl)(Cl)Cl)c(Cl)c(OC(=O)Cc2cccs2)c1Cl [DM-TA-PEN] the “Median % ILS (dying mice only)” value ([1]; IP 90 mg/kg/dose) was “+75%”, the Tumor-Free-Surv/Total ([1]; IP 90 mg/kg/dose) was 0/5 and the T-C ([2]; IP 90 mg/kg/dose, Days 12-16) was over 41.2 days. For the same molecule, the Tumor-Free-Surv/Total ([2]; IP 90 mg/kg/dose, Days 12-16) was 3/5.
In the case of COc1nc(C(Cl)(Cl)Cl)c(Cl)c(OC(=O)c2ccc([N+](=O)[O-])o2)c1Cl [DM-NF-PEN], the “Median % ILS (dying mice only)” value ([1]; IP 135 mg/kg/dose) was “+59%”, the Tumor-Free-Surv/Total ([1]; IP 135 mg/kg/dose) was 0/5 and the T-C ([2]; IP 90 mg/kg/dose, Days 12-16) was over 41.2 days. For the same molecule, the Tumor-Free-Surv/Total ([2]; IP 90 mg/kg/dose, Days 12-16) was 4/5.
